In PubChem BioAssay AID330 (DTP/NCI, 2004):
“And” between values parts separate entries of the source, which are not always exact repeats. Identical values can stand only once. Inconclusive results and toxic doses are left out. How the source made its calls: active means survival T/C of 150% or more; inactive means T/C below 125% in these data.

Test system: P388 leukemia ip, CD2F1 mice, survival T/C
Experiment: NCI In Vivo Anticancer Drug Screen. Data for tumor model P388 Leukemia (intraperitoneal) in CD2F1 (CDF1) mice
Conditions: endpoint: median survival time, higher = longer survival
How it was run: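 Mice carrying the transplanted tumor received test compound or vehicle. Survival was recorded in each group, and the value is the treated-group measurement divided by that of the vehicle-treated control group.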

[1] = dose: 50.0 mg/kg/injection, schedule: Q01DX005 (ip), vehicle: Klucel (hydroxypropylcellulose) (HPC)
[2] = dose: 100.0 mg/kg/injection, schedule: Q01DX005 (ip), vehicle: Klucel (hydroxypropylcellulose) (HPC)
[3] = dose: 200.0 mg/kg/injection, schedule: Q01DX005 (ip), vehicle: Klucel (hydroxypropylcellulose) (HPC)
[4] = dose: 50.0 mg/kg/injection, schedule: Q01DX009 (ip), vehicle: saline
[5] = dose: 100.0 mg/kg/injection, schedule: Q01DX009 (ip), vehicle: saline
[6] = dose: 50.0 mg/kg/injection, schedule: Q01DX009 (ip), vehicle: Klucel (hydroxypropylcellulose) (HPC)
[7] = dose: 100.0 mg/kg/injection, schedule: Q01DX009 (ip), vehicle: Klucel (hydroxypropylcellulose) (HPC)
[8] = dose: 100.0 mg/kg/injection, schedule: Q04DX002 (ip), vehicle: saline with Tween-80
[9] = dose: 200.0 mg/kg/injection, schedule: Q04DX002 (ip), vehicle: saline with Tween-80
[10] = dose: 400.0 mg/kg/injection, schedule: Q04DX002 (ip), vehicle: saline with Tween-80
[11] = dose: 100.0 mg/kg/injection, schedule: Q04DX003 (ip), vehicle: saline

Measured: T/C

c1ccc(-c2ccc(NCCN3CCOCC3)nn2)cc1
inactive: dose: 60.0 mg/kg/injection, schedule: Q01DX005 (ip), vehicle: Klucel (hydroxypropylcellulose) (HPC) 100 % of control | dose: 120.0 mg/kg/injection, schedule: Q01DX005 (ip), vehicle: Klucel (hydroxypropylcellulose) (HPC) 105 % of control

C[n+]1c2cc(N)ccc2cc2ccc(N)cc21
active: dose: 6.25 mg/kg/injection, schedule: Q01DX009 (ip), vehicle: saline 153 % of control | dose: 12.5 mg/kg/injection, schedule: Q01DX009 (ip), vehicle: saline 164 % of control
inactive: dose: 3.12 mg/kg/injection, schedule: Q01DX005 (ip), vehicle: suspension in saline 121 % of control | dose: 6.25 mg/kg/injection, schedule: Q01DX005 (ip), vehicle: suspension in saline 117 % of control

CS(=O)(=O)OCCCCCCCCCOS(C)(=O)=O
active: dose: 75.0 mg/kg/injection, schedule: Q04DX003 (ip), vehicle: saline with Tween-80 159 % of control
inactive: dose: 12.5 mg/kg/injection, schedule: Q01DX009 (ip), vehicle: saline sonified 109 % of control | dose: 25.0 mg/kg/injection, schedule: Q01DX009 (ip), vehicle: saline sonified 122 % of control | dose: 33.0 mg/kg/injection, schedule: Q04DX003 (ip), vehicle: saline with Tween-80 109 % of control | dose: 50.0 mg/kg/injection, schedule: Q01DX009 (ip), vehicle: saline sonified 118 % of control | dose: 50.0 mg/kg/injection, schedule: Q04DX003 (ip), vehicle: saline with Tween-80 122 % of control

Oc1cc2c(c3c(O)c4ccccc4c(O)c13)=NC1CCCCC1N=2 (stereo not drawn)
inactive: dose: 25.0 mg/kg/injection, schedule: Q01DX005 (ip), vehicle: Klucel (hydroxypropylcellulose) (HPC) 100 % of control | [1] 102 % of control | [2] 103 % of control | [3] 93 % of control

CC1OC(c2ccc3c(c2O)C(=O)C2=C(C3=O)[C@H]3OC(=O)C[C@H]3O[C@@H]2C)CC(N(C)C)C1O (stereo partly drawn)
inactive: dose: 1.5 mg/kg/injection, schedule: Q01DX005 (ip), vehicle: other 91 % of control | dose: 750.0 micrograms/kg/injection, schedule: Q01DX005 (ip), vehicle: other 86 % of control | dose: 1500.0 micrograms/kg/injection, schedule: Q01DX005 (ip), vehicle: other 90 % of control | dose: 3000.0 micrograms/kg/injection, schedule: Q01DX005 (ip), vehicle: other 88 % of control

COC(=O)CCC1=C(C)c2cc3[n-]c(cc4nc(cc5[n-]c(cc1n2)c(CCC(=O)OC)c5C)C(C(C)=O)=C4C)c(C(C)=O)c3C.[Cl-].[Fe+3]
inactive: [1] 104 % of control | [2] 106 % of control | [3] 99 % of control

COC1=CC(=O)C(Cc2ccc3c(c2)OCO3)=CC1=O
inactive: dose: 2.5 mg/kg/injection, schedule: Q01DX009 (ip), vehicle: saline with Tween-80 101 % of control | dose: 5.0 mg/kg/injection, schedule: Q01DX009 (ip), vehicle: saline with Tween-80 99 % of control | dose: 10.0 mg/kg/injection, schedule: Q01DX009 (ip), vehicle: saline with Tween-80 101 % of control

C=CCNC(=O)c1ccccc1SC(C)=O
inactive: dose: 50.0 mg/kg/injection, schedule: Q01DX009 (ip), vehicle: saline with Tween-80 117 % of control and 119 % of control | dose: 100.0 mg/kg/injection, schedule: Q01DX009 (ip), vehicle: saline with Tween-80 120 % of control | dose: 200.0 mg/kg/injection, schedule: Q01DX009 (ip), vehicle: saline with Tween-80 114 % of control

COc1cc(C2OCCO2)cc(OC)c1O
inactive: [4] 97 % of control | [5] 105 % of control | dose: 200.0 mg/kg/injection, schedule: Q01DX009 (ip), vehicle: saline 101 % of control

FC(F)(F)c1ccc(Cl)c(N=Cc2ccc(C=Nc3cc(C(F)(F)F)ccc3Cl)cc2)c1
inactive: [6] 91 % of control | [7] 98 % of control

COC(CC[S+](C)C)C(=O)O (stereo not drawn)
inactive: dose: 32.0 mg/kg/injection, schedule: Q01DX005 (ip), vehicle: water 105 % of control | dose: 64.0 mg/kg/injection, schedule: Q01DX005 (ip), vehicle: water 97 % of control | dose: 128.0 mg/kg/injection, schedule: Q01DX005 (ip), vehicle: water 102 % of control | dose: 256.0 mg/kg/injection, schedule: Q01DX005 (ip), vehicle: water 101 % of control

O=C(N/N=C/c1ccccc1O)C(O)(c1ccccc1)c1ccccc1
inactive: dose: 100.0 mg/kg/injection, schedule: Q04DX003 (ip), vehicle: saline with Tween-80 107 % of control | dose: 200.0 mg/kg/injection, schedule: Q04DX003 (ip), vehicle: saline with Tween-80 101 % of control | dose: 400.0 mg/kg/injection, schedule: Q04DX003 (ip), vehicle: saline with Tween-80 92 % of control

CC(C)=CCC(OC(=O)C=C(C)C)c1cc(O)c2c(O)ccc(O)c2c1O.[O]=[V] (stereo not drawn)
inactive: [8] 92 % of control | [9] 92 % of control | [10] 109 % of control

COc1ccc2c(c1)Sc1c(Cl)c3c(c(Cl)c1=N2)Sc1cc(OC)ccc1N=3
inactive: [8] 102 % of control | [9] 112 % of control | [10] 118 % of control

Cc1cc(=O)oc2cc(OC(=O)N(C)C)ccc12
inactive: [11] 115 % of control | dose: 200.0 mg/kg/injection, schedule: Q04DX003 (ip), vehicle: saline 112 % of control | dose: 400.0 mg/kg/injection, schedule: Q04DX003 (ip), vehicle: saline 97 % of control

O=C(c1ccccc1)c1cc(Cl)ccc1NCC(O)COc1cccc2ccccc12 (stereo not drawn)
inactive: dose: 60.0 mg/kg/injection, schedule: Q01DX005 (ip), vehicle: saline with Tween-80 100 % of control | dose: 120.0 mg/kg/injection, schedule: Q01DX005 (ip), vehicle: saline with Tween-80 91 % of control | dose: 240.0 mg/kg/injection, schedule: Q01DX005 (ip), vehicle: saline with Tween-80 88 % of control

O=C(Nc1c(Cl)cccc1Cl)OC1CCCCCCCCCCC1
inactive: [6] 100 % of control | [7] 92 % of control | dose: 200.0 mg/kg/injection, schedule: Q01DX009 (ip), vehicle: Klucel (hydroxypropylcellulose) (HPC) 86 % of control

ClC1=CC=c2ccc3c(c2[N-]1)[N-]C(Cl)=CC=3.ClC1=CC=c2ccc3c(c2[N-]1)[N-]C(Cl)=CC=3.O=[N+]([O-])O.[Cu+]
inactive: dose: 6.25 mg/kg/injection, schedule: Q04DX002 (ip), vehicle: suspension in saline 101 % of control | dose: 12.5 mg/kg/injection, schedule: Q04DX002 (ip), vehicle: suspension in saline 93 % of control | dose: 25.0 mg/kg/injection, schedule: Q04DX002 (ip), vehicle: suspension in saline 98 % of control

O=C(O)CNC(=O)C(Cc1c[nH]c2ccccc12)NC(=O)OCc1ccccc1 (stereo not drawn)
inactive: dose: 50.0 mg/kg/injection, schedule: Q01DX005 (ip), vehicle: saline with Tween-80 95 % of control | dose: 100.0 mg/kg/injection, schedule: Q01DX005 (ip), vehicle: saline with Tween-80 94 % of control | dose: 200.0 mg/kg/injection, schedule: Q01DX005 (ip), vehicle: saline with Tween-80 91 % of control

O=CC1C(=O)NC(=O)NC1=O
inactive: dose: 25.0 mg/kg/injection, schedule: Q04DX003 (ip), vehicle: saline 112 % of control | dose: 50.0 mg/kg/injection, schedule: Q04DX003 (ip), vehicle: saline 100 % of control | [11] 114 % of control

O=S(=O)(O)c1ccc2cc3nn(-c4ccc(/C=C/c5ccc(-n6nc7cc8ccc(S(=O)(=O)O)cc8cc7n6)cc5S(=O)(=O)O)c(S(=O)(=O)O)c4)nc3cc2c1
inactive: [4] 97 % of control | [5] 97 % of control

COc1ccc2c(c1OC)C(C(C)=O)N1CCc3cc4c(cc3C1=C2)OCO4 (stereo not drawn)
inactive: dose: 0.63 mg/kg/injection, schedule: Q01DX009 (ip), vehicle: distilled water + Tween-80 106 % of control | dose: 1.25 mg/kg/injection, schedule: Q01DX009 (ip), vehicle: distilled water + Tween-80 101 % of control | dose: 2.5 mg/kg/injection, schedule: Q01DX009 (ip), vehicle: distilled water + Tween-80 99 % of control | dose: 5.0 mg/kg/injection, schedule: Q01DX009 (ip), vehicle: distilled water + Tween-80 96 % of control | dose: 10.0 mg/kg/injection, schedule: Q01DX009 (ip), vehicle: distilled water + Tween-80 101 % of control | dose: 20.0 mg/kg/injection, schedule: Q01DX009 (ip), vehicle: distilled water + Tween-80 101 % of control
